Experimental data taken from patent US20020151581A1, “Glucose and lipid lowering compounds” (priority 1998, published 2002).

Assays:
[1] = target: T1, hormone-sensitive lipase derived from a preparation of 3T3-cell lysate (Mus musculus, UniProt P54310); test: Inhibition of hormone-sensitive lipase from 3T3-L1 cell lysate on glycerol-stabilized triolein; assay type: biochemical; conditions: test compound 100 μM
T1 construct: hormone-sensitive lipase derived from a preparation of 3T3-cell lysate; endogenous in cells; host or cells: 3T3-L1 cell lysate
T1 sequence (P54310 1-759): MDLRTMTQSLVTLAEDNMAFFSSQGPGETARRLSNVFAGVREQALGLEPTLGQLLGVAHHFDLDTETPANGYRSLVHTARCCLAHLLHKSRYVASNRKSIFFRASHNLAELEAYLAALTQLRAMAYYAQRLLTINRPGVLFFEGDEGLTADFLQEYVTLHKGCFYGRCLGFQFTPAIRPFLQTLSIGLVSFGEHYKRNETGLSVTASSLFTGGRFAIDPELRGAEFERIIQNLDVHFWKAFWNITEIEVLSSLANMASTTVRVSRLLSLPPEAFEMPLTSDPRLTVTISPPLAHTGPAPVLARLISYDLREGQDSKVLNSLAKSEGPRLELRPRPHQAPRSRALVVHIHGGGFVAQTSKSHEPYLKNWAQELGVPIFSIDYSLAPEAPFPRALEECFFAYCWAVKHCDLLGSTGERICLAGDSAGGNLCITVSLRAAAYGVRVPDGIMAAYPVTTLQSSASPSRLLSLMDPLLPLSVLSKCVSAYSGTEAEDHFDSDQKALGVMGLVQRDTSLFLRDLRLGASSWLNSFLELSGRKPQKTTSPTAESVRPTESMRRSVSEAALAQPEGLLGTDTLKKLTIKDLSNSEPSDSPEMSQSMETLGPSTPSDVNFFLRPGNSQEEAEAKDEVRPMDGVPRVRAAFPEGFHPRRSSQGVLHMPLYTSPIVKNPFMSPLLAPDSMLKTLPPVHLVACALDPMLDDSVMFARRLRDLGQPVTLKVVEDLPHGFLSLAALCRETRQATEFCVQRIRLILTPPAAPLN
Method: Recombinant hormone-sensitive lipase protein isolated from a bacterial expression vector was pre-incubated with a compound of the invention (e.g., 100 μM) prior to the addition of substrate, emulsified triolein phosphatidylcholine/phosphatidylinositol (PC/PI), to initiate the reaction. At various time points, aliquots of the reaction were taken, and the level of glycerol used as an index of enzyme activity. Pharmacological specificity is determined by incubating test compound with other mammalian and non-mammalian lipase enzyme systems to assess inhibition of activity. The assay was conducted using triolein concentrations from 42 μM to 835 μM.
In a similar manner to that described in Example 4 above, 2α-benzoyloxy-4,5,7,8,11αH-eudesman-8,12-olide at 100 μM was evaluated for ability to activity of recombinant hormone-sensitive lipase and hormone-sensitive lipase derived from a preparation of 3T3-cell lysate on glycerol-stabilized triolein.

lipoprotein lipase = target: T2, lipoprotein lipase (Homo sapiens, UniProt P06858); test: Inhibition of lipoprotein lipase, glycerol stabilized triolein substrate; assay type: biochemical; conditions: test compound 100 μM
T2 sequence (P06858 28-475): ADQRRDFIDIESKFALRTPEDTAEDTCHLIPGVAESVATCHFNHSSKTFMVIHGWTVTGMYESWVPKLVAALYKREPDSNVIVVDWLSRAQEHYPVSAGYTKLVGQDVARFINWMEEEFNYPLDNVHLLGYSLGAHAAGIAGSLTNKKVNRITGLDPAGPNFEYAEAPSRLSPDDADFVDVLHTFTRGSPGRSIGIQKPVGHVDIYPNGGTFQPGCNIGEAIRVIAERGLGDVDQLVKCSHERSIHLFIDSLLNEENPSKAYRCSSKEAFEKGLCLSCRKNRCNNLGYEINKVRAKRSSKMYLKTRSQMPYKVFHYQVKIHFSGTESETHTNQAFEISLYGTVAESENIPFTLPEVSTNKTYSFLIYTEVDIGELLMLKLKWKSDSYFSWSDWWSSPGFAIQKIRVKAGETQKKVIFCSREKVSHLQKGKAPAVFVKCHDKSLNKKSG

In the case of CC1C[C@H](OC(=O)c2ccccc2)C[C@]2(C)C[C@H]3OC(=O)[C@@H](C)[C@H]3CC12 (stereo partly drawn) [2α-benzoyloxy-4,5,7,8,11αH-eudesman-8,12-olide], the inhibition at 100 µM ([1]; triolein 30 μM) is reported as 63%, the inhibition at 100 µM ([1]; triolein 67 μM) is reported as 56% and the inhibition at 100 µM ([1]; triolein 100 μM) is reported as 51%. It also gave an inhibition at 100 µM ([1]; triolein 201 μM) of 41%, an inhibition at 100 µM ([1]; triolein 400 μM) of 38% and an inhibition at 100 µM ([1]; triolein 601 μM) of 30%. For the same molecule, the inhibition at 100 µM ([1]; triolein 800 μM) was 18%, the inhibition at 100 µM ([1]; triolein 1000 μM) was 15% and the “inhibition of lipoprotein lipase (in words)” value (lipoprotein lipase) was “failed to significantly inhibit”. For the same molecule, the “Lipoprotein Lipase + test compound (enzyme activity)” value (“Lipoprotein Lipase + test compound” below) (lipoprotein lipase; triolein substrate 30 μM) was 0.7, the “Lipoprotein Lipase + test compound” value (lipoprotein lipase; triolein substrate 67 μM) was 1.8 and the “Lipoprotein Lipase + test compound” value (lipoprotein lipase; triolein substrate 134 μM) was 4.9. The “Lipoprotein Lipase + test compound” value (lipoprotein lipase; triolein substrate 264 μM) was 10.3 and the “Lipoprotein Lipase + test compound” value (lipoprotein lipase; triolein substrate 1000 μM) was 67.4.
